This is an account of results in patent US4939142A, “Substituted styrene derivatives” (priority 1989, dated 1990).

One may read the LD50 as the dose expected to kill half of the subjects tested. High values mean a less toxic substance, low ones a more toxic substance. Usually ED50 stands for the dose that gives a 50% effect, or the effect in half of the subjects.

One series is described as follows: in vivo. The note with it: mouse, in vivo, po. On the procedure:
(§1) Male and female white mice (CFLP strain, 18-22 g) are used, 10 animals per dose. The test compounds are administered orally in a volume of 20 ml/kg. After administration the mice are observed for a period of 7 days. The animals are kept in plastic boxes, on wood litter, at room temperature. The animals receive standard mouse fodder and tap water ad libitum.

The subject of the next series is maximal electroshock. Description: Inhibition of maximal electroshock on mice. The note with it: for ED50: Mus musculus, po; for Therapeutical index: Table VI, maximal electroshock, LD50/ED50. For orientation: The maximal electroshock test induces tonic seizures with an electrical stimulus.
The test system of a further series is motility. The experiment in a line: animal or person. Type of series: in vivo. As to conditions: for ED50: Mus musculus, po; for Therapeutical index: Table II, motility inhibition, LD50/ED50. On the procedure: The test is accomplished according to the method of Borsy et al. in a 10-channel Dews system equipment, whereby 3 mice are used per channel. The test compound or the carrier, respectively, is administered orally, and one hour after the said treatment the animals are placed into the apparatus and the number of the interruptions of infrared radiation is registered for 30 minutes.
The results are summarized in Table II and documented by means of suitable statistics for each experiment.
[J. Borsy, E. Csanyi, I. Lazar: Arch. Int. Pharmacodyn. 124, 1 (1960)].

Another series deals with hexobarbital narcosis. The experiment in a line: Hexobarbital narcosis potentiating effect. The note with it: for ED50: Mus musculus, po; for Therapeutical index LD50 /ED50: Table I, hexobarbital narcosis.
The test system of another series is pentetrazole spasm. The experiment in a line: Inhibition of pentetrazol spasm on mice. As to conditions: for ED50: Mus musculus, po; for Therapeutical index: Table V, pentetrazole spasm, LD50/ED50.
A further series relates to tetrabenazine ptosis. Description: Tetrabenazin ptosis antagonism (Hoffmeister et al.). The note with it: Table III; for ED50: Mus musculus, oral, 30 min before tetrabenazin 50 mg/kg i.p. The series is classed as in vivo. On the procedure:
The test is carried out by the method of Hoffmeister et al. adapted to mice. Groups consisting of 10-20 animals are treated orally with each dose of the test compound. The control group is treated orally with the carrier. Thirty minutes later a 50 mg/kg i.p. tetrabenazine dose is administered, whereupon after 30, 60, 90 and 120 minutes the animals with closed eye-lids are counted in each group.
On the basis of all measurements an average ptosis is calculated for each group and expressed as the percentile deviation (inhibition) from the control group. On the basis of the data thus obtained ED50 values are calculated.
[Hoffmeister, F., Wuttke, W., and Kroneberg, G.: Arzneim. Forsch. (Drug.

Series [1] has as its system nicotine spasm and lethality. Description: Inhibition of nicotine spasm and lethality on mice (Stone). The series is classed as in vivo. As to conditions: Table VIII; for ED50: Mus musculus, oral, 1 h before nicotine 1.4 mg/kg i.v.; for Therapeutical index: nicotine spasm and lethality, LD50/ED50. The text has this: [Stone, C. C., Mecklenburg, K. L., Torchiana, M. L.: Arch. Int.

The next series relates to yohimbin toxicity. The experiment in a line: animal or person. The note with it: for ED50: Mus musculus; for Therapeutical index: Table IV, yohimbin toxicity, LD50/ED50. How it is done: The test is carried out according to the method of Quinton. Groups consisting of 10 mice are used for each dose. The animal groups are treated with the suitable doses of the test compounds while the control group is treated with a carrier. An hour after the treatment a sublethal dose of yohimbin is administered intraperitoneally in a volume of 20 ml/kg. The perished animals are counted after 1 and 24 hours.

A further series has as its system acetic acid writhing. The experiment in a line: Acetic acid "writhing test" on mice (Newbould). Type of series: in vivo, white mice. As to conditions: Table VII; for ED50: Mus musculus, oral, 1 h before acetic acid i.p., read-out: ED50; for Therapeutical index: acetic acid writhing, LD50/ED50. On the procedure: In the period between the 5th and 10th minutes following the administration of acetic acid the number of the characteristic "writhing" responses is counted for each animal and the "total writhing number" (within 5 minutes) is expressed as the percentage of the value obtained for the control animals. The mice are treated with the test compound and the carrier, respectively, orally 1 hour before the administration of acetic acid. 12 animals are used per dose.
[Newbould, B. D.: Brit.
On the technique in general: An intraperitoneal irritant provokes the stretching counted in writhing tests.

The test system of the next series is mice. Description: in vivo. As to conditions: 10080 min. On the procedure: as §1
The subject of another series is ulcus secretion. The experiment in a line: animal or person. Type of series: in vivo. The note with it: for ED50: Rattus norvegicus, po, 5 h; for Therapeutical index: Table X, ulcus secretion, LD50/ED50. On the procedure: The test is carried out according to the method of Nakamura on rats (Wistar strain) weighing 150-230 g and fasted for 48 hours. Each animal group consists of 4 male and 4 female rats. On the day of the experiment the pylorus of the animals is bound and the corresponding dose of the test compound is administered orally immidiately after operation. The animals are killed with ether 5 hours after the operation, their stomach is removed, cut along the large curve and placed on plastic plates.

The test system of series [2] is experimental coronary insufficiency induced by vasopressine. The experiment in a line: Antianginal effect on rats, vasopressine-induced coronary insufficiency, T-wave (Nieschultz). Type of series: in vivo, male rats. As to conditions: Table IX, dose 2 mg/kg, vasopressine 1 IU/kg i.v. How it is done: The test is carried out on male rats weighing 180-220 g. The animals are narcotized with the aid of chloralose urethane (70-700 mg/kg i.p.). ECG is registered by means of needle electrodes in standard II output. Antianginal effect is tested according to the method of Nieschultz. Experimental coronary insufficiency is induced by administering vasopressine (1 IU/kg i.v.) on 10-12 animals for each dose. The magnitude of the T-wave before and after the administration of vasopressine is measured in the treated and control groups.

Molecules are shown by their SMILES. A value given as a limit tells only on which side of the number the result lay.

Protocol for hexobarbital narcosis: The test is carried out on white mice. Groups consisting of six mice are used for each dose and test compound. The test compound is administered orally and an hour after this treatment narcosis is induced by means of a 40 mg/kg i.v. dose of hexobarbital. The control group receives carrier instead of the test compound.
Those mice are considered to be having a positive reaction which show a narcosis time at least 2.5 times longer than that of the control group. The ED50 values thus transformed are calculated.
Protocol for maximal electroshock: The test is carried out on white mice weighing 20-25 g. The animals receive an electric shock through corneal electrodes (50 Hz; 45 mA, 0.4 sec.). A total inhibition of the tonus extensor spasms of the posterior extremities is regarded as the criterium of anticonvulsive effect. The test compound and the carrier, respectively, are administered orally an hour before the electric shock.
Protocol for pentetrazole spasm: The modified method of Benziger and Hane is used on white mice. Groups consisting of 6 animals are used for each dose. […] The test compounds are administered orally one hour before the treatment with pentetrazole; in the control group the animals obtain the carrier orally at the same points of time.
The therapeutical index data disclosed in the above Tables are calculated by means of the following equation: [formula]

Molecule `CC(CO/N=C1C=C(/C=C/c2ccccc2)CC(C)(C)C/1)CN(C)C` (racemic) [Example 13, D,L-5,5-Dimethyl-3-(E)-phenyl-vinyl-1-(E)-(3'-dimethylamino-2'-methyl-propoxyimino)-2-cyclohexene] returned an LD50 at 168 h in “in vivo” of 1800 mg/kg. In the series with maximal electroshock, this molecule yielded an ED50 of 64 mg/kg and a Therapeutical index of 28.1. In the series with motility, this molecule yielded an ED50 of 100 mg/kg and a Therapeutical index of 18.0. In addition, in the series with hexobarbital narcosis, the ED50 was determined as 9 mg/kg and the “Therapeutical index LD50 /ED50” value is on record as 200.0.

Regarding `CC(CO/N=C1C=C(/C=C/c2ccc(Cl)cc2)CC(C)(C)C/1)CN(C)C` (racemic) [Example 18, D,L-5,5-Dimethyl-3-(E)-[(4'-chloro-phenyl)-vinyl]-1-(E)-(3"-dimethylamino-2"-methyl-propoxyimino)-2-cyclohexene], the values for the ED50 (in the series with pentetrazole spasm; with tetrabenazine ptosis; in series [1]) were 190 mg/kg, 40 mg/kg and 88 mg/kg, respectively. The Therapeutical index was determined as 10.5 with pentetrazole spasm; 50.0 in the series with tetrabenazine ptosis (tetrabenazin ptosis, LD50/ED50); 22.7 in [1]. This molecule also yielded an LD50 at 168 h in “in vivo” of 2000 mg/kg.

With `CN(C)CCC=C1c2ccccc2CCc2ccccc21` [Amitriptylin, reference compound], in the series with yohimbin toxicity, the ED50 amounted to 12.5 mg/kg and the Therapeutical index was 18. In addition, in the series on tetrabenazine ptosis, the ED50 amounted to 12 mg/kg.

For `CN(C)CCCO/N=C1C=C(/C=C/c2ccccc2)CC(C)(C)C/1` [Example 1, 5,5-Dimethyl-3-(E)-phenyl-vinyl-1-(E)-(3'-dimethylamino-propoxyimino)-2-cyclohexene], the ED50 with pentetrazole spasm amounted to 56 mg/kg; in the series with maximal electroshock it was 110 mg/kg; in the series with motility, 60 mg/kg; with acetic acid writhing it was 160 mg/kg; in [1], 12 mg/kg. Besides, the Therapeutical index in the series on pentetrazole spasm was found to be 23.2; in the series with maximal electroshock, 11.8; with motility it was 22.0; with acetic acid writhing it was 8.1; in series [1], 108.0. Also, in “in vivo”, the median lethal dose (LD50) at 168 h stood at 1300 mg/kg.

For `CN(C)CCO/N=C1C=C(/C=C/c2ccccc2)CC(C)(C)C/1` [Example 3, 5,5-Dimethyl-3-(E)-phenyl-vinyl-1-(E)-(2'-dimethylamino-ethoxyimino)-2-cyclohexene], the ED50 in the series on pentetrazole spasm was found to be 68 mg/kg; in the series with maximal electroshock, 88 mg/kg; in the series on motility, 58 mg/kg; in series [1] it was 33 mg/kg. The Therapeutical index is on record as 14.7 in the series with pentetrazole spasm, 11.4 with maximal electroshock, 17.0 in the series with motility and 30.3 in [1]. Further, the LD50 at 168 h in “in vivo” came to 1000 mg/kg.

Consider `CN(C)CCCO/N=C1C=C(/C=C/c2cccc(Cl)c2)CC(C)(C)C/1` [Example 8, 5,5-Dimethyl-3-(E)-[(3'-chloro-phenyl)-vinyl]-1-(E)-(3"-dimethylamino-propoxyimino)-2-cyclohexene], for which the ED50 in the series with yohimbin toxicity stood at 35 mg/kg; with pentetrazole spasm it was 58 mg/kg; with motility it was 170 mg/kg; with acetic acid writhing it was 178 mg/kg; with hexobarbital narcosis it was 180 mg/kg; in series [1] it was 35 mg/kg. Moreover, the Therapeutical index in the series with yohimbin toxicity is given as 57.1; in the series with pentetrazole spasm, 34.5; in the series on motility, 11.8; with acetic acid writhing, 11.2. This molecule also had an LD50 at 168 h in the series “in vivo” of 2000 mg/kg. Further, the “Therapeutical index LD50 /ED50” value with hexobarbital narcosis is 11.1.

In the series with mice (Table II, oral, mice), `CC1(C)CC(/C=C/c2ccccc2Cl)=CC(=N/OCCN2CCCCC2)/C1` [Example 26, 5,5-Dimethyl-3-(E)-[(2'-chloro-phenyl)-vinyl]-1-(E)-(N-piperdinyl-ethoxyimino)-2-cyclohexene] yielded an LD50 of over 1000 mg/kg. In the series “in vivo”, this molecule registered an LD50 at 168 h of over 1000 mg/kg. Besides, the ED50 was about 50 mg/kg in the series with ulcus secretion and about 200 mg/kg in the series on motility. The figures for the Therapeutical index entry with ulcus secretion and in the series on motility were “above 20” and over 5.0, respectively.

On to `CC1(C)CC(/C=C/c2cccc(Cl)c2)=CC(=N/OCCN2CCOCC2)/C1` [Example 28, 5,5-Dimethyl-3-(E)-[(3'-chloro-phenyl)-vinyl]-1-(E)-(N-morpholino-ethoxyimino)-2-cyclohexene], for which the Inhibition % in [2] is -31%.

For the molecule `COc1cccc(/C=C/C2=CC(=N/OCCN3CCOCC3)/CC(C)(C)C2)c1` [Example 29, 5,5-Dimethyl-3-(E)-[(3'-methoxy-phenyl)-vinyl]-1-(E)-(N-morpholino-ethoxyimino)-2-cyclohexene], the LD50 with mice (Table I, oral, mice) is over 2000 mg/kg; with mice (Table II, oral, mice), over 2000 mg/kg; in the series with mice (Table X), “above 2000 mg/kg”. Further, in the series “in vivo”, the LD50 at 168 h is over 2000 mg/kg. Moreover, the ED50 is about 200 mg/kg in the series with ulcus secretion, about 200 mg/kg in the series with motility, about 160 mg/kg in the series on acetic acid writhing and 21.5 mg/kg in the series on hexobarbital narcosis. For the same molecule, the values for the Therapeutical index entry in the series on ulcus secretion, with motility and in the series on acetic acid writhing were “above 10.0”, over 10.0 and over 12.5, respectively. For the same molecule, in the series on hexobarbital narcosis, the “Therapeutical index LD50 /ED50” value was over 93.0.

In the series with pentetrazole spasm, `COc1ccccc1/C=C/C1=CC(=N/OCCN2CCCCC2)/CC(C)(C)C1` [Example 33, 5,5-Dimethyl-3-(E)-[(2'-methoxy-phenyl)-vinyl]-1-(E)-(N-piperidinyl-ethoxyimino)-cyclohexene] had an ED50 of 63 mg/kg and a Therapeutical index of over 15.9. Besides, in “in vivo”, the LD50 at 168 h was over 1000 mg/kg. The Inhibition % in series [2] is recorded as -47.1%.

As to `CC1(C)CC(/C=C/c2cccc(Cl)c2)=CC(=N/OCCCN2CCOCC2)/C1` [Example 34, 5,5-Dimethyl-3-(E)-[(3'-chloro-phenyl)-vinyl]-1-(E)-(N-morpholino-propoxyimino)-2-cyclohexene], the ED50 in the series on pentetrazole spasm was 180 mg/kg; in the series with ulcus secretion, about 100 mg/kg; in the series with acetic acid writhing, about 200 mg/kg. Also, the Therapeutical index is listed as over 11.0 in the series with pentetrazole spasm, “above 20.0” with ulcus secretion and over 10.0 in the series on acetic acid writhing. In addition, the LD50 in the series on mice (Table VII, oral, mice) is on record as over 2000 mg/kg; with mice (Table X), “above 2000 mg/kg”. The molecule also registered an LD50 at 168 h in the series “in vivo” of over 2000 mg/kg.

In the series on pentetrazole spasm, `CN1C(=O)OC(C)(C)C1=O` [Trimethadion, reference compound] showed an ED50 of 490 mg/kg. Besides, in the series with maximal electroshock, the ED50 worked out at 400 mg/kg and the Therapeutical index is reported as 5.1.

As to `COc1cc(C(=S)N2CCOCC2)cc(OC)c1OC` [Trithiozine, reference compound], in the series with ulcus secretion, the ED50 was about 240 mg/kg.
